Test results published in ChEMBL document CHEMBL5137093, “Improving Drug Delivery While Tailoring Prodrug Activation to Modulate Cmax and Cmin by Optimization of (Carbonyl)oxyalkyl Linker-Based Prodrugs of Atazanavir” (J Med Chem, 2022).

Legend:
[1] = Tmax in Sprague-Dawley rat at 3 mg/kg,po measured upto 24 hrs by UPLC-MS/MS analysis; type: ADME, organism-based; conditions: in vivo
[2] = Cmax in Sprague-Dawley rat at 3 mg/kg,po measured upto 24 hrs by UPLC-MS/MS analysis; type: ADME, organism-based; set-up: dose 3 mg/kg, time < 24 hrs, route po; conditions: in vivo
[3] = Ratio of Cmax/Cmin in Sprague-Dawley rat at 1 mg/kg,iv measured after 24 hrs by UPLC-MS/MS analysis; type: ADME, organism-based; conditions: in vivo
[4] = Aqueous solubility of compound at pH 6.5 by UPLC analysis; type: physicochemical; conditions: aqueous medium, read-out: solubility
[5] = Volume of distribution at steady state in Sprague-Dawley rat at 1 mg/kg,iv measured upto 24 hrs by UPLC-MS/MS analysis; type: ADME, organism-based; conditions: in vivo, read-out: Vdss
[6] = Aqueous solubility of compound at pH 4 by UPLC analysis; type: physicochemical; conditions: aqueous medium, read-out: solubility
[7] = AUClast in Sprague-Dawley rat at 1 mg/kg,iv measured upto 24 hrs by UPLC-MS/MS analysis; type: ADME, organism-based; set-up: time < 24 hrs, dose 1 mg/kg, route iv; conditions: in vivo
[8] = Clearance in Sprague-Dawley rat at 1 mg/kg,iv measured upto 24 hrs by UPLC-MS/MS analysis; type: ADME, organism-based; conditions: in vivo
[9] = Cmin in Sprague-Dawley rat at 1 mg/kg,iv measured after 24 hrs by UPLC-MS/MS analysis; type: ADME, organism-based; conditions: in vivo, read-out: Cmin
[10] = Tmax in Sprague-Dawley rat at 30 mg/kg,po measured upto 24 hrs by UPLC-MS/MS analysis; type: ADME, organism-based; conditions: in vivo
[11] = Cmax in Sprague-Dawley rat at 1 mg/kg,iv measured upto 24 hrs by UPLC-MS/MS analysis; type: ADME, organism-based; set-up: dose 1 mg/kg, time < 24 hrs, route iv; conditions: in vivo
[12] = Half life in Sprague-Dawley rat at 1 mg/kg,iv measured upto 24 hrs by UPLC-MS/MS analysis; type: ADME, organism-based; conditions: in vivo
[13] = Cmax in Sprague-Dawley rat at 30 mg/kg,po measured upto 24 hrs by UPLC-MS/MS analysis; type: ADME, organism-based; set-up: time < 24 hrs, dose 30 mg/kg, route po; conditions: in vivo
[14] = Ratio of Cmax/Cmin in Sprague-Dawley rat at 3 mg/kg,po measured after 24 hrs by UPLC-MS/MS analysis; type: ADME, organism-based; conditions: in vivo
[15] = biological target: Voltage-gated inwardly rectifying potassium channel KCNH2 (Homo sapiens, UniProt Q12809); experiment: Inhibition of human ERG by patch-clamp assay; type: toxicity
[16] = AUClast in Sprague-Dawley rat at 30 mg/kg,po measured upto 24 hrs by UPLC-MS/MS analysis; type: ADME, organism-based; set-up: time < 24 hrs, dose 30 mg/kg, route po; conditions: in vivo
[17] = AUClast in Sprague-Dawley rat at 3 mg/kg,po measured upto 24 hrs by UPLC-MS/MS analysis; type: ADME, organism-based; set-up: time < 24 hrs, dose 3 mg/kg, route po; conditions: in vivo

Sequence of Voltage-gated inwardly rectifying potassium channel KCNH2 (Q12809 whole entry): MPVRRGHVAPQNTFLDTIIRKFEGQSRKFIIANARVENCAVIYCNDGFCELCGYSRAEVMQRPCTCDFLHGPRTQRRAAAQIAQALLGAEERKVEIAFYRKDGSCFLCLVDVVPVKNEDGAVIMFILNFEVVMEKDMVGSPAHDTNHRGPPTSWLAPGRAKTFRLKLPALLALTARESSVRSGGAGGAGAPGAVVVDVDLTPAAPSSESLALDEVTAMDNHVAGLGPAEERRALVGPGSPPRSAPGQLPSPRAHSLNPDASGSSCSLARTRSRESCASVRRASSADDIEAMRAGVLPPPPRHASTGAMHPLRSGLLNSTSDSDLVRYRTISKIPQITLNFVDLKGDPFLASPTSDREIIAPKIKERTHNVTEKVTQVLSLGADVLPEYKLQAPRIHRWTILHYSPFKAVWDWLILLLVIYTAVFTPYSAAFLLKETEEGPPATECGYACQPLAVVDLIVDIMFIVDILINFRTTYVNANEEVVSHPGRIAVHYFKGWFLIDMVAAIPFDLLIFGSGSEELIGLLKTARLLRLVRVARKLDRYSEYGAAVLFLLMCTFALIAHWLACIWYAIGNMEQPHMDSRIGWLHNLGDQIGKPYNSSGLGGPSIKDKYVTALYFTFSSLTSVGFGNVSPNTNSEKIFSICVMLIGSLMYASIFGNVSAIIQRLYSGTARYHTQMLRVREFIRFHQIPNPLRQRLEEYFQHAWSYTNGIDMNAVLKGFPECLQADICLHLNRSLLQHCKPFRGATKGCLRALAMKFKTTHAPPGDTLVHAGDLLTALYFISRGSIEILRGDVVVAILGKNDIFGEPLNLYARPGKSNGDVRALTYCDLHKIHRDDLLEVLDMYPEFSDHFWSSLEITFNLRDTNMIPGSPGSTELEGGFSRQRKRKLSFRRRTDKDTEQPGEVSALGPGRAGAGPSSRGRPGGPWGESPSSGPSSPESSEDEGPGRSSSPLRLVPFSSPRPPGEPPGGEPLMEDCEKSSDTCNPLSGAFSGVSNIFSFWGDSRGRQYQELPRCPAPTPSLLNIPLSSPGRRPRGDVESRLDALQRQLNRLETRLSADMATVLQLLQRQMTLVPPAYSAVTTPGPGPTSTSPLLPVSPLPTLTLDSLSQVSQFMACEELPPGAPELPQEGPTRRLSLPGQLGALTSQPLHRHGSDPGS

Question: Which results are given for `COC(=O)N[C@H](C(=O)N[C@@H](Cc1ccccc1)[C@@H](O)CN(Cc1ccc(-c2ccccn2)cc1)NC(=O)[C@@H](NC(=O)OC)C(C)(C)C)C(C)(C)C` [ATAZANAVIR]?
Answer: Tmax [1]: 0.5 h; Cmax [2]: 266 nM; Ratio [3]: 8978.6; solubility [4]: < 1 µg/mL; Vd [5]: 1.5 L/kg; solubility [6]: < 1 µg/mL; AUC(0-t) at 24 h [7]: 0.636 µM·h; clearance [8]: 38.7 mL/min/kg; concentration at 24 h [9]: 0.28 nM; Tmax [10]: 3 h; Cmax [11]: 2510 nM; half-life [12]: 7 h; Cmax [13]: 5110 nM; Ratio [14]: 1064; IC50 [15]: ≥ 30 µM; AUC(0-t) at 24 h [16]: 20.9 µM·h; AUC(0-t) at 24 h [17]: 0.384 µM·h
